Data published in ChEMBL document CHEMBL1155106, “Progesterone receptor antagonists with a 3-phenylquinazoline-2,4-dione/2-phenylisoquinoline-1,3-dione skeleton” (Bioorg Med Chem, 2008).
pIC50: −log10 of the molar value. The source made the active and inactive calls. No cut-off for these calls is given here.

Key:
[1] = molecular target: T1, Progesterone receptor (Homo sapiens, UniProt P06401); test: Antagonist activity at progesterone receptor in human T47D cells assessed as inhibition of progesterone-induced alkaline phosphatase activity; assay type: functional, cell-based
T1 sequence (P06401 whole entry): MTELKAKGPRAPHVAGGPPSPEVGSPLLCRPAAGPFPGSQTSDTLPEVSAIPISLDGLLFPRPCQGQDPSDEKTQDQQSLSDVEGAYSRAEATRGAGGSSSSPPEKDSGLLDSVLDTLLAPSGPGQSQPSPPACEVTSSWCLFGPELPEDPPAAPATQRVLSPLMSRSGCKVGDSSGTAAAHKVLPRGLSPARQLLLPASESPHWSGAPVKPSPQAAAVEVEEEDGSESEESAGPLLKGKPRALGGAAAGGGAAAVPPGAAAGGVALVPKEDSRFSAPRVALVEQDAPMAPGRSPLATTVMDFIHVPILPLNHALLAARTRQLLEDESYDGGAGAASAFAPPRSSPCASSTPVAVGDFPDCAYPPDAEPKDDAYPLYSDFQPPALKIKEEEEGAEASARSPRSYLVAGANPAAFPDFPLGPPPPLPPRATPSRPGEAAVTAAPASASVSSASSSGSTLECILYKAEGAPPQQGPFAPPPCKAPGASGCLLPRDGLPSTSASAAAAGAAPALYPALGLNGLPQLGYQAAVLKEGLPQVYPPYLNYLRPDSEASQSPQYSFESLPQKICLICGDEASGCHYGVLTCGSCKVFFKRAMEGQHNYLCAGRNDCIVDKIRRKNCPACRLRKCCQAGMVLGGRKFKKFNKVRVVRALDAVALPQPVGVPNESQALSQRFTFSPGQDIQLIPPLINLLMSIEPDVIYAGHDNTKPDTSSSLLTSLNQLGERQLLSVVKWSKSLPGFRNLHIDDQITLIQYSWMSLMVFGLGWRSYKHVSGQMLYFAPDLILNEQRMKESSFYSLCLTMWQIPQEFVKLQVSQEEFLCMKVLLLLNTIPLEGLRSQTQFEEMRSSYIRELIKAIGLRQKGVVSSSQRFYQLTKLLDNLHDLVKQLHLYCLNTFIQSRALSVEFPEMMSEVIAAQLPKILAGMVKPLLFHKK

[2] = molecular target: T2, Progesterone receptor (Homo sapiens) (UniProt P06401); test: Agonist activity at progesterone receptor in human T47D cells assessed as induction of alkaline phosphatase activity
T2 sequence (whole entry): T1 sequence (P06401 whole entry)

[3] = molecular target: T2, Progesterone receptor (Homo sapiens); test: Agonist activity at human progesterone receptor expressed in CHO cells assessed as […] luciferase activity by reporter gene assay; assay type: functional, cell-based
[4] = molecular target: T1, Progesterone receptor; test: Antagonist activity at human progesterone receptor expressed in CHO cells assessed as […] luciferase activity by reporter gene assay; assay type: functional, cell-based
[5] = molecular target: T2, Progesterone receptor (Homo sapiens); test: Antagonist activity at progesterone receptor in human T47D cells assessed as inhibition of progesterone-induced alkaline phosphatase activity at 100 uM; assay type: functional, cell-based
[6] = molecular target: T2, Progesterone receptor (Homo sapiens); test: Antagonist activity at human progesterone receptor expressed in CHO cells assessed as inhibition of progesterone-induced luciferase activity by reporter gene assay at 100 uM; assay type: functional, cell-based
[7] = molecular target: T3, Androgen receptor (Homo sapiens) (UniProt P10275); test: Displacement of [3H]testosterone from androgen receptor expressed in human T47D cells; assay type: cell-based
T3 sequence (whole entry): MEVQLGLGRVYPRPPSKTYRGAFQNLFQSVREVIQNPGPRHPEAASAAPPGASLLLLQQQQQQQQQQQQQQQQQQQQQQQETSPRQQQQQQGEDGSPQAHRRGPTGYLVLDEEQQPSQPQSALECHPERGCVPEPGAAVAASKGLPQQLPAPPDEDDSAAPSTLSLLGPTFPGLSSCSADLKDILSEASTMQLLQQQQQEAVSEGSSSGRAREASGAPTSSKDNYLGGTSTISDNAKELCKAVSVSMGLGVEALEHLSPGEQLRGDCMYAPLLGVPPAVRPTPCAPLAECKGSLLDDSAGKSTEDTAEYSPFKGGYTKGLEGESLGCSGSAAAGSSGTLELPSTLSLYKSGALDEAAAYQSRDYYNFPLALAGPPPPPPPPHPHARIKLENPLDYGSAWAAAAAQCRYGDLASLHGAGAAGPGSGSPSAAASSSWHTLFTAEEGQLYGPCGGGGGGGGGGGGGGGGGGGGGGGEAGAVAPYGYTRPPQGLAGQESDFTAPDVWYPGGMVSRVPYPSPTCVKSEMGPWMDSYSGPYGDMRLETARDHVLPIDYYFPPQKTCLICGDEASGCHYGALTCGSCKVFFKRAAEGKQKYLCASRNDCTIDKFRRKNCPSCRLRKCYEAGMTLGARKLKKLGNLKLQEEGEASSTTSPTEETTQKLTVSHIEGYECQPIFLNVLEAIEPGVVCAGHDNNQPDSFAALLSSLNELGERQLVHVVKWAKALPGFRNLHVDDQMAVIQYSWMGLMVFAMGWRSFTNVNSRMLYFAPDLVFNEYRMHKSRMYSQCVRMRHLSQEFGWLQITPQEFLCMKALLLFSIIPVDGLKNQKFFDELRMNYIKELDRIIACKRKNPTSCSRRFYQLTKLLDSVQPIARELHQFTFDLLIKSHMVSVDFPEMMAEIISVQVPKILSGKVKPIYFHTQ

[8] = molecular target: T4, Estrogen receptor (Homo sapiens) (UniProt P03372); test: Displacement of [3H]estradiol from estrogen receptor expressed in human T47D cells; assay type: cell-based
T4 sequence (whole entry): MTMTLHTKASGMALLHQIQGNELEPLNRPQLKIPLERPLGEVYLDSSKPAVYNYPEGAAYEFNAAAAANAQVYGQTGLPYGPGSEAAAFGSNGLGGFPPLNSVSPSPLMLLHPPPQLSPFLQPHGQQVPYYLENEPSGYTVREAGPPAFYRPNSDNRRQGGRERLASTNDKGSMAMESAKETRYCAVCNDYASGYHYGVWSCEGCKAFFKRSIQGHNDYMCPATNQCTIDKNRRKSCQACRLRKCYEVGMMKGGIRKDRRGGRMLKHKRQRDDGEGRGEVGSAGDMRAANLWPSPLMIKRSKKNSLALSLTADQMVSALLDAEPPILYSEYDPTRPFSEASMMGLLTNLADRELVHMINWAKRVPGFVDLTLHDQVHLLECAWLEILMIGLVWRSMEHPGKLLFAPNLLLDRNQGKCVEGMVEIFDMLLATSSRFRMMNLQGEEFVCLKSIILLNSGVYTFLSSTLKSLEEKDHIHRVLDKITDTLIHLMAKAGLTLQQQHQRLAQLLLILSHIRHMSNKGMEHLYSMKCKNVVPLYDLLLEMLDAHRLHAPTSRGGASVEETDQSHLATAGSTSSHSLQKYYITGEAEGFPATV

Cn1c(=O)n(-c2ccccc2)c(=O)c2ccccc21
pIC50 [1]: 4.08 | Activity [2]: inactive | Activity [3]: inactive

C=CCC1(CC=C)C(=O)N(c2ccc(Cl)cc2)C(=O)c2ccccc21
pIC50 [1]: 6.40 | pIC50 [4]: 6.07

N#Cc1ccc(N2C(=O)c3ccccc3C3(CCCCC3)C2=O)cc1
pIC50 [1]: 6.06 | pIC50 [4]: 6.35

CC1(C)C(=O)N(c2ccc(C#N)cc2)C(=O)c2ccccc21
pIC50 [1]: 5.80 | pIC50 [4]: 5.74

O=C1CC(O)C(N2C(=O)c3ccc(O)cc3C2=O)C(=O)N1 (stereo not drawn)
inhibition [5]: 29.4%

O=C1c2ccccc2C2(CCCCC2)C(=O)N1c1ccc(Cl)cc1
pIC50 [1]: 5.96 | pIC50 [4]: 5.82

CCCC1(CCC)C(=O)N(c2ccc(Cl)cc2)C(=O)c2ccccc21
pIC50 [1]: 5.96 | pIC50 [4]: 6.00

O=C1CCC(N2C(=O)c3cccc(O)c3C2=O)C(=O)N1O (stereo not drawn)
inhibition [5]: 30.7%

C=CCC1(CC=C)C(=O)N(c2ccc(C#N)cc2)C(=O)c2ccccc21
pIC50 [1]: 6.96 | pIC50 [4]: 6.82

O=C1c2ccccc2C2(CCCC2)C(=O)N1c1ccc(Cl)cc1
pIC50 [1]: 5.89 | pIC50 [4]: 5.68

O=c1[nH]c2ccccc2c(=O)n1-c1ccccc1
Activity [2]: inactive | inhibition [5]: 34% | Activity [3]: inactive

CCCn1c(=O)n(-c2ccccc2)c(=O)c2ccccc21
pIC50 [1]: 4.64 | Activity [2]: inactive | pIC50 [4]: 4.74 | Activity [3]: inactive

O=C1CCC(N2C(=O)c3ccc(O)cc3C2=O)C(=O)N1O (stereo not drawn)
inhibition [5]: 53.7%

O=C1CCC(N2C(=O)c3ccccc3C2=O)C(=O)N1O (stereo not drawn)
inhibition [5]: 42.5%

CC1(C)C(=O)N(c2ccc(F)cc2)C(=O)c2ccccc21
pIC50 [1]: 5.17 | pIC50 [4]: 5.05

CC1(C)C(=O)N(c2ccccc2F)C(=O)c2ccccc21
pIC50 [1]: 4.89 | pIC50 [4]: 5.00

CC1(C)C(=O)N(c2ccc(Cl)cc2)C(=O)c2ccccc21
pIC50 [1]: 5.89 | pIC50 [4]: 5.48

CC1(C)C(=O)N(c2cccc(F)c2)C(=O)c2ccccc21
pIC50 [1]: 5.00 | pIC50 [4]: 4.96

O=C1CC(O)C(N2C(=O)c3ccccc3C2=O)C(=O)N1 (stereo not drawn)
inhibition [5]: 30.6%

O=C1CCC(N2C(=O)c3ccccc3C2=O)C(=O)N1 (stereo not drawn)
Activity [5]: inactive

O=c1c2ccccc2n(Cc2ccccc2)c(=O)n1-c1ccccc1
pIC50 [1]: 4.96 | Activity [2]: inactive | pIC50 [4]: 4.82 | Activity [3]: inactive

CC1(C)C(=O)N(c2ccccc2)C(=O)c2ccccc21
pIC50 [1]: 4.70 | pIC50 [4]: 4.59

CC1(C)C(=O)N(c2ccccc2Cl)C(=O)c2ccccc21
pIC50 [1]: 5.39 | pIC50 [4]: 5.31

CCCC1(CCC)C(=O)N(c2ccc(C#N)cc2)C(=O)c2ccccc21
pIC50 [1]: 6.92 | pIC50 [4]: 6.85

CCn1c(=O)n(-c2ccccc2)c(=O)c2ccccc21
pIC50 [1]: 4.52 | Activity [2]: inactive | pIC50 [4]: 4.47 | Activity [3]: inactive

Cc1ccc(N2C(=O)c3ccccc3C(C)(C)C2=O)cc1
pIC50 [1]: 5.09 | pIC50 [4]: 5.05

N#Cc1ccc(N2C(=O)c3ccccc3C3(CCCC3)C2=O)cc1
pIC50 [1]: 5.92 | pIC50 [4]: 6.16

COc1ccc(N2C(=O)c3ccccc3C(C)(C)C2=O)cc1
pIC50 [1]: 4.96 | pIC50 [4]: 4.77

CCC1(CC)C(=O)N(c2ccc(Cl)cc2)C(=O)c2ccccc21
pIC50 [1]: 6.60 | pIC50 [4]: 6.55

O=C1Cc2ccccc2C(=O)N1c1ccccc1
inhibition [5]: 25% | inhibition [6]: 38%

CCC1(CC)C(=O)N(c2ccc(C#N)cc2)C(=O)c2ccccc21
pIC50 [1]: 7.13 | Activity [7]: inactive | pIC50 [4]: 7.11 | Activity [8]: inactive

CC1(C)C(=O)N(c2cccc(Cl)c2)C(=O)c2ccccc21
pIC50 [1]: 5.47 | pIC50 [4]: 5.24
